According to patent US10005844B2, “Polynucleotides encoding anti-Notch1 NRR antibody polypeptides” (Genentech, Inc., priority 2007, dated 2018):

Experiments:
Format in all cases: cell-based
[1] = test system: OVCAR-3; experiment: CellTiter-Glo Luminescent Cell Viability Assay, OVCAR-3; conditions: ovarian cancer cell line, FIG. 17
Description: (§1) The effects of anti-Notch1 NRR and the gamma secretase inhibitors DAPT and “Compound E” (CmpE) on a panel of cancer cell lines were examined. […] This assay determines the number of viable cells in culture based on quantitation of ATP present, which is an indication of metabolically active cells. Luminescence is quantified as “relative luminescent units” in FIG. 17 (y-axis).

[2] = test system: MT-3; experiment: CellTiter-Glo Luminescent Cell Viability Assay, MT-3; conditions: breast carcinoma line, FIG. 17
Description: as §1

[3] = test system: Mouse C2C12 myoblasts; experiment: C2C12 myoblast differentiation assay; conditions: Antibody A 200 ng/ml, Compound E 1 uM, four days, FIG. 9 and 10
Procedure: Mouse C2C12 myoblasts differentiate into myotubes when treated with differentiation medium. Co-culture with Jagged1 ligand-expressing cells inhibits differentiation by stimulating Notch signaling.
In particular, mouse C2C12 myoblast cells were plated in a 24-well tissue culture dish with a sterile round, 10 mm cover slip in the bottom at 2.5×10^4 cells per ml, using 1 ml per well. Cells were allowed to attach and grow for 22 hours in growth medium (DMEM with 10% FBS) at 37° C., 5% CO2. The growth medium was then aspirated and differentiation medium (DM) was added (DMEM with 6% Horse Serum). Cells were treated with: A. DM alone; B. DM with 3T3-J1 cells; C. […] Cells were incubated at 37° C., 5% CO2 under these conditions for four days. Cover slips were retrieved, and cells were fixed with 4% paraformaldehyde and permeablized with 0.2% Triton X-100 in PBS. Cells were then blocked with 10% FBS in PBS. An antibody recognizing Myosin Heavy Chain (Millipore, Anti-Myosin HC, clone A4.1025 ascites) and a goat anti-mouse IgG (H+L) secondary antibody conjugated to Alexa® 488 (Molecular Probes) was used to stain the differentiated myotubes. DAPI was used to counter-stain the nuclei. Images of three different fields were taken for each condition. Metamorph software (Molecular Devices) was used to count the number of nuclei and the area of Alexa® 488 stain. […]

Structure (SMILES) | Cell viability (ATP levels), OVCAR-3 [1] | Cell viability (ATP levels), MT-3 [2] | Differentiation of C2C12 myoblasts blocked by Jagged1 co-culture [3]
C[C@H](NC(=O)Cc1cc(F)cc(F)c1)C(=O)N[C@H](C(=O)OC(C)(C)C)c1ccccc1 [DAPT, N—[N-(3,5-difluorophenacetyl)-L-alanyl]-S-phenylglycine t-butyl ester] | reduced ATP levels | reduced ATP levels | 
C[C@H](NC(=O)Cc1cc(F)cc(F)c1)C(=O)N[C@H]1N=C(c2ccccc2)c2ccccc2N(C)C1=O [Compound E] | reduced ATP levels | reduced ATP levels | restored differentiation
